Starred links: 1 amine or outer side, 2 acyl side, 3 side chain; linkers in the order of their positions; H or OH if unused. Non-standard residues stand in square brackets, D forms with d. Residues, ends and D or L forms follow the SMILES beside them. *: point of attachment. Nva(5-(4-Bn-piperidin-1-yl)) = N[C@@H](CCCN1CCC(Cc2ccccc2)CC1)C(=O)O; X5 = O=C1[C@@H](N[*:1])Cc2ccccc2CN1CCCC(=O)[*:2]; X1 = O=C1[C@@H](N[*:1])Cc2ccccc2CN1CCC(=O)[*:2]; Dmt = Cc1cc(O)cc(C)c1C[C@H](N)C(=O)O; X2 = c1ccc2[nH]c(*)nc2c1; X3 = c1ccc2oc(*)nc2c1; X4 = c1ccc2sc(*)nc2c1
Experiments:
[1] = target: T1, human MOPr (Homo sapiens, UniProt P35372); assay: BRET1 β-arrestin-2 recruitment assay; assay type: cell-based; design: expressed in transfected cells; host or cells: HEK293 cells stably expressing eYFP-β-arrestin-2, transiently transfected with the Rluc8-MOP plasmid; details: for EC50: Table 3B, — = non-detectable recruitment, read-out: MOPr (β-arrestin-2) EC50; for Emax: read-out: MOPr (β-arrestin-2) Emax;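 for Emax: Emax relative to maximal DAMGO-induced BRET as 100%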;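 for MOPr (β-arrestin-2) Emax: Emax relative to maximal DAMGO-induced BRET as 100%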
Procedure: Peak response amplitudes were normalized to basal and maximal (cells permeabilized with 20 μM digitonin) fluorescence levels. 1.8. β-Arrestin-2 recruitment assay The β-arrestin-2 recruitment assay was performed as described [34; 45] with minor modifications. Briefly, two days prior the experiment, HEK293 cells stably expressing eYFP-tagged β-arrestin-2 were transfected with the plasmid encoding Rluc8-MOP receptor. β-Arrestin-2 recruitment was measured at 37° C. in presence of 5 μM Coelenterazine H, 5 min after agonist addition.

[2] = target: T2, NPFF2R (Homo sapiens, UniProt Q9Y5X5); assay: Radioligand competition binding with [125I]-1-DMe-NPFF; design: expressed in transfected cells; HEK293-Glo20F cells (cAMP)
[3] = target: T1, human MOPr; assay: cell-based; assay type: cell-based; design: expressed in transfected cells; HEK293-Glo20F cells (cAMP); details: for EC50: read-out: MOPr (cAMP) EC50; for Emax: read-out: MOPr (cAMP) Emax
Procedure: (§1) Stimulation by endogenous RF-amide peptides or test compounds for [^35S]-GTPγS binding to membranes from CHO cells expressing human NPFF1R or NPFF2R, were examined as reported. 1.6. Glo-Sensor cAMP Assay cAMP accumulation assay was essentially done as described with the following modifications: HEK293 cells stably expressing cAMP Glosensor-20F were used, with or without additional stable expression of each individual opioid receptor or NPFF1R. The cAMP responses were measured in presence of D-luciferin (1 mM).

[4] = target: T3, human NPFF1R (Homo sapiens, UniProt Q9GZQ6); assay: Radioligand competition binding with [125I]-1-DMe-NPFF; design: expressed in transfected cells; HEK293-Glo20F cells (cAMP)
[5] = target: T3, human NPFF1R; assay: [35S]-GTPγS binding assay; assay type: biochemical; design: expressed in transfected cells; details: for Emax: relative to RFRP3
Procedure: as §1

[6] = target: T2, NPFF2R; assay: [35S]-GTPγS binding assay; assay type: biochemical; design: expressed in transfected cells
Procedure: as §1

[7] = target: T1, human MOPr; assay: Radioligand competition binding with [3H]-diprenorphine; design: expressed in transfected cells; HEK293-Glo20F cells (cAMP)
[8] = Table 3a, HEK293-Glo20F-hMOPr cells
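Throughout, for MOPr (cAMP) Emax: Emax relative to DAMGO as 100%.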

T2 sequence (Q9Y5X5 whole entry): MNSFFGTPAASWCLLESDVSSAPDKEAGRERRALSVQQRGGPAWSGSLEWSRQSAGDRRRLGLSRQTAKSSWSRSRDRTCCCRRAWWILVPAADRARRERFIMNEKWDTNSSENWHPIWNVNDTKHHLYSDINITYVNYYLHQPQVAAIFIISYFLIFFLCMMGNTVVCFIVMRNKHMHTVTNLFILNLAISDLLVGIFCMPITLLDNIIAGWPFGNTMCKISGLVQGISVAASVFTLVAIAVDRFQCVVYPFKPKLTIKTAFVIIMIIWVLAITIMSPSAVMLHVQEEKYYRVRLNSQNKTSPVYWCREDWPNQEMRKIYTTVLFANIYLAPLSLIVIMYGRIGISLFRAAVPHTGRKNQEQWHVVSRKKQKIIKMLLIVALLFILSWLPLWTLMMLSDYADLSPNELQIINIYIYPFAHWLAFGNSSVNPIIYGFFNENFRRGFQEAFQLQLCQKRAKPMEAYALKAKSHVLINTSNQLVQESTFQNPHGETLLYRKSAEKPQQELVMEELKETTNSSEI
T1 sequence (P35372 whole entry): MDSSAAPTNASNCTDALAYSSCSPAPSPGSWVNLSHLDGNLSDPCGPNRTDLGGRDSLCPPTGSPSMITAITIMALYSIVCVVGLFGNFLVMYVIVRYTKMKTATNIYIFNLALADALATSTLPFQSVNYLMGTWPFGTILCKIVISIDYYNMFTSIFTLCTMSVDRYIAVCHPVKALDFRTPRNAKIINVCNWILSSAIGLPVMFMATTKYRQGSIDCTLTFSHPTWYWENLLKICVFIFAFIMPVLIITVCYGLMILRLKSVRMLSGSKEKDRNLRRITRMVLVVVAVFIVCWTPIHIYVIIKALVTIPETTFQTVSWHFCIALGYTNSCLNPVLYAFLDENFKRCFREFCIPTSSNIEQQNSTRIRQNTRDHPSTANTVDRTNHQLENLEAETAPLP
T3 sequence (Q9GZQ6 whole entry): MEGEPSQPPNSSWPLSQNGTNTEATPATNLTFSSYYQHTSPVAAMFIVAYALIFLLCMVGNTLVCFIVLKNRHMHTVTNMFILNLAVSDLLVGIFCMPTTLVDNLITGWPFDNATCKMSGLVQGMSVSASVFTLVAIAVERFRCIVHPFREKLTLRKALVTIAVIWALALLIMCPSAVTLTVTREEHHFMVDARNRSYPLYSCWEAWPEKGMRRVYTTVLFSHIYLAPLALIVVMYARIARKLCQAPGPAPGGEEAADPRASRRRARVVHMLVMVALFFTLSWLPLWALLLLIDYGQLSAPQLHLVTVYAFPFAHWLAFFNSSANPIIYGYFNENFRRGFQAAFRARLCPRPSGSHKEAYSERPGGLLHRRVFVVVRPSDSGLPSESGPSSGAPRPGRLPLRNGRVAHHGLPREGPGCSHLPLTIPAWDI

Cc1cc(O)cc(C)c1C[C@H](N)C(=O)N[C@H](CCCNC(=N)N)C(=O)N[C@H]1Cc2ccccc2CN(CCCC(=O)N[C@@H](CCCN2CCC(Cc3ccccc3)CC2)C(=O)N[C@H](C(N)=O)C(C)C)C1=O [DP0020, H-Dmt-D-Arg-AbaGABA-Bpa-Val-NH2] (H-[Dmt][dR][X5][Nva(5-(4-Bn-piperidin-1-yl))]V-NH2)
EC50 [1]: 149 nM | Emax [1]: 53% | IC50 [2]: 40 to 400 nM | EC50 ([3]; Table 3B): 6.3 nM | Emax [3]: 101% | IC50 [4]: 40 to 400 nM

Cc1cc(O)cc(C)c1C[C@H](N)C(=O)N[C@H](CCCNC(=N)N)C(=O)N[C@H]1Cc2c(ccc3ccccc23)CN(CC(=O)N[C@@H](CCCN2CCC(Cc3ccccc3)CC2)C(=O)N[C@H](C(N)=O)C(C)C)C1=O [DP0021, H-Dmt-D-Arg-1AnaGly-Bpa-Val-NH2]
EC50 [1]: 109 ± 57 nM | Emax [1]: 22% | IC50 [2]: < 40 nM | EC50 ([3]; Table 3B): 2.8 ± 0.4 nM | Emax [3]: 102 ± 3% | IC50 [4]: 40 to 400 nM

Cc1cc(O)cc(C)c1C[C@H](N)C(=O)N[C@H](CCCNC(=N)N)C(=O)N[C@H]1Cc2ccccc2CN(CCCC(=O)N[C@@H](CCCN2CCC(Cc3ccccc3)CC2)C(=O)N[C@@H](Cc2c[nH]c3ccccc23)C(N)=O)C1=O [DP0022, H-Dmt-D-Arg-AbaGABA-Bpa-Trp-NH2] (H-[Dmt][dR][X5][Nva(5-(4-Bn-piperidin-1-yl))]W-NH2)
EC50 [1]: 617 ± 205 nM | Emax [1]: 30 ± 0.7% | IC50 [2]: < 40 nM | EC50 ([3]; Table 3B): 5 nM | Emax [3]: 90% | IC50 [4]: ~40 nM

Cc1cc(O)cc(C)c1C[C@H](N)C(=O)N[C@H](CCCNC(=N)N)C(=O)N[C@H]1Cc2ccccc2CN(CC(=O)N[C@@H](CCCNC(=N)N)C(=O)N[C@@H](Cc2ccccc2)C(N)=O)C1=O [KGFF01, H-Dmt-D-Arg-Aba-Gly-Arg-Phe-NH2]
EC50 [5]: 155 ± 25 nM | Emax [5]: 44 ± 8% | EC50 [6]: 128 ± 23 nM | Emax [6]: 95 ± 6% | Ki [7]: 0.59 ± 0.21 nM | Ki [2]: 1.2 ± 0.5 nM | EC50 [3, 8]: 2.4 ± 1 nM | Emax [3]: 101 ± 7% | Ki [4]: 57 ± 10 nM

Cc1cc(O)cc(C)c1C[C@H](N)C(=O)N[C@H](CCCNC(=N)N)C(=O)N[C@H]1Cc2ccccc2CN(CC(=O)N[C@@H](CCCNC(=N)N)C(=O)N[C@@H](Cc2ccccc2)C(=O)O)C1=O [KGFF02, H-Dmt-D-Arg-Aba-Gly-Arg-Phe-OH]
Ki [7]: 0.59 ± 0.15 nM | Ki [2]: 251 ± 25 nM | EC50 [3, 8]: 1.5 ± 0.7 nM | Emax [3]: 89 ± 2% | Ki [4]: 2540 nM

Cc1cc(O)cc(C)c1C[C@H](N)C(=O)N[C@H](CCCNC(=N)N)C(=O)N[C@H]1Cc2ccccc2CN(CC(=O)N[C@@H](CCCN)C(=O)N[C@@H](Cc2ccccc2)C(N)=O)C1=O [KGFF04, H-Dmt-D-Arg-Aba-Gly-Orn-Phe-NH2]
EC50 [5]: > 10000 nM | Emax [5]: 25 ± 4% | EC50 [6]: 963 ± 168 nM | Emax [6]: 67 ± 3% | Ki [7]: 0.67 ± 0.29 nM | Ki [2]: 45 ± 8 nM | EC50 [3, 8]: 9.5 ± 1.5 nM | Emax [3]: 70 ± 4% | Ki [4]: 780 ± 90 nM

Cc1cc(O)cc(C)c1C[C@H](N)C(=O)N[C@H](CCCNC(=N)N)C(=O)N[C@@H](Cc1ccccc1)C(=O)N[C@@H](CCCN)C(=O)N[C@@H](Cc1ccccc1)C(N)=O [KGFF05, H-Dmt-D-Arg-Phe-Orn-Phe-NH2] (HELM PEPTIDE1{[Cc1cc(O)cc(C)c1C[C@H](N)C(=O)[*:2]].[dR].F.[Orn].F.[am]}$$$$V2.0)
Ki [7]: 3.2 ± 1.1 nM | Ki [2]: 360 ± 50 nM | EC50 [3, 8]: 59.3 ± 24.5 nM | Emax [3]: 94 ± 2% | Ki [4]: 3100 nM

Cc1cc(O)cc(C)c1C[C@H](N)C(=O)N[C@@H](CCCNC(=N)N)C(=O)N[C@@H](Cc1ccccc1)C(N)=O [KGFF06, H-Dmt-Arg-Phe-NH2] (HELM PEPTIDE1{[Cc1cc(O)cc(C)c1C[C@H](N)C(=O)[*:2]].R.F.[am]}$$$$V2.0)
Ki [7]: 46 ± 22 nM | Ki [2]: 15.9 ± 1.8 nM | EC50 [3, 8]: 2300 nM | Ki [4]: 147 ± 20 nM

Cc1cc(O)cc(C)c1C[C@H](N)C(=O)N[C@H](CCCNC(=N)N)C(=O)N[C@@H](Cc1ccccc1)C(N)=O [KGFF07, H-Dmt-D-Arg-Phe-NH2] (HELM PEPTIDE1{[Cc1cc(O)cc(C)c1C[C@H](N)C(=O)[*:2]].[dR].F.[am]}$$$$V2.0)
EC50 [5]: 87 ± 7 nM | Emax [5]: 84 ± 8% | EC50 [6]: 1930 nM | Emax [6]: 87 ± 2% | Ki [7]: 0.29 ± 0.13 nM | Ki [2]: 84 ± 26 nM | EC50 [3, 8]: 1.7 ± 0.4 nM | Emax [3]: 102 ± 2% | Ki [4]: 11.8 ± 3.6 nM

Cc1cc(O)cc(C)c1C[C@H](N)C(=O)N[C@H](CCCNC(=N)N)C(=O)N[C@H]1Cc2ccccc2CN(CCC(=O)N[C@@H](CCCN2CCCCC2)C(=O)N[C@@H](Cc2ccccc2)C(N)=O)C1=O [KGFF08, H-Dmt-D-Arg-Aba-β-Ala-Apa-Phe-NH2]
Emax [5]: 23 ± 1% | EC50 [6]: 574 ± 129 nM | Emax [6]: 97 ± 2% | Ki [7]: 0.94 ± 0.19 nM | Ki [2]: 3.9 ± 0.1 nM | EC50 [3, 8]: 9.9 ± 2 nM | Emax [3]: 102 ± 3%

Cc1cc(O)cc(C)c1C[C@H](N)C(=O)N[C@@H](CCCN1CCCCC1)C(=O)N[C@@H](Cc1ccccc1)C(N)=O [KGFF10, H-Dmt-Apa-Phe-NH2]
Ki [7]: 68 ± 48 nM | Ki [2]: 2100 nM | EC50 [3, 8]: 598 ± 35 nM | Emax [3]: 91 ± 10% | Ki [4]: > 10000 nM

Cc1cc(O)cc(C)c1C[C@H](N)C(=O)N[C@@H](CCCN1CCC(Cc2ccccc2)CC1)C(=O)N[C@@H](Cc1ccccc1)C(N)=O [KGFF11, H-Dmt-Bpa-Phe-NH2]
Ki [7]: > 10000 nM | Ki [2]: 406 ± 95 nM | EC50 [3, 8]: > 10000 nM | Ki [4]: 2720 nM

Cc1cc(O)cc(C)c1C[C@H](N)C(=O)N[C@H](CCCNC(=N)N)C(=O)N[C@H]1Cc2ccccc2CNC1=O [KGFF12, H-Dmt-D-Arg-Aba-NH]
EC50 [5]: > 10000 nM | Emax [5]: 13 ± 3% | EC50 [6]: > 10000 nM | Emax [6]: 32 ± 17% | Ki [7]: 0.17 ± 0.05 nM | Ki [2]: 375 ± 108 nM | EC50 [3, 8]: 2.7 ± 1.5 nM | Emax [3]: 103 ± 4% | Ki [4]: 2490 nM

CNC(=O)[C@H](Cc1ccccc1)NC(=O)[C@@H](CCCNC(=N)N)NC(=O)[C@@H](N)Cc1c(C)cc(O)cc1C [KGFF13, H-Dmt-D-Arg-Phe-NHMe] (HELM PEPTIDE1{[Cc1cc(O)cc(C)c1C[C@H](N)C(=O)[*:2]].[dR].F.[CN[*:1]]}$$$$V2.0)
EC50 [5]: > 10000 nM | Emax [5]: 39 ± 2% | EC50 [6]: > 10000 nM | Emax [6]: 68 ± 8% | Ki [7]: 0.11 ± 0.05 nM | Ki [2]: 206 ± 47 nM | EC50 [3, 8]: 1 ± 0.4 nM | Emax [3]: 97 ± 2% | Ki [4]: 147 ± 16 nM

Cc1cc(O)cc(C)c1C[C@H](N)C(=O)N[C@H](CCCNC(=N)N)C(=O)N[C@H]1Cc2ccccc2CN(CCC(=O)N[C@@H](CCCCNc2nc3ccccc3[nH]2)C(=O)N[C@@H](Cc2ccccc2)C(N)=O)C1=O [KGFF14, H-Dmt-D-Arg-Aba-β-Ala-Lys(Bim)-Phe-NH2] (H-[Dmt][dR][X1]K(X2)F-NH2)
EC50 [5]: 76 ± 26 nM | Emax [5]: 74 ± 1% | EC50 [6]: 89 ± 7 nM | Emax [6]: 73 ± 18% | Ki [7]: 1.6 ± 0.3 nM | Ki [2]: 4.15 ± 1.35 nM | EC50 [3, 8]: 5.9 ± 2.5 nM | Emax [3]: 99 ± 4% | Ki [4]: 4.54 ± 0.01 nM

Cc1cc(O)cc(C)c1C[C@H](N)C(=O)N[C@H](CCCNC(=N)N)C(=O)N[C@H]1Cc2ccccc2CN(CCC(=O)N[C@@H](CCCCNc2nc3ccccc3o2)C(=O)N[C@@H](Cc2ccccc2)C(N)=O)C1=O [KGFF15, H-Dmt-D-Arg-Aba-β-Ala-Lys(Box)-Phe-NH2] (H-[Dmt][dR][X1]K(X3)F-NH2)
EC50 [5]: 1020 nM | Emax [5]: 51 ± 5% | EC50 [6]: 930 ± 210 nM | Emax [6]: 105 ± 15% | Ki [7]: 1.8 ± 0.9 nM | Ki [2]: 9.6 ± 0.6 nM | EC50 [3, 8]: 4.1 ± 1.7 nM | Emax [3]: 92 ± 13% | Ki [4]: 88 ± 8 nM

Cc1cc(O)cc(C)c1C[C@H](N)C(=O)N[C@H](CCCNC(=N)N)C(=O)N[C@H]1Cc2ccccc2CN(CCC(=O)N[C@@H](CCCCNc2nc3ccccc3s2)C(=O)N[C@@H](Cc2ccccc2)C(N)=O)C1=O [KGFF16, H-Dmt-D-Arg-Aba-β-Ala-Lys(Bth)-Phe-NH2] (H-[Dmt][dR][X1]K(X4)F-NH2)
EC50 [5]: 273 ± 115 nM | Emax [5]: 51 ± 7% | EC50 [6]: 526 ± 12 nM | Emax [6]: 88 ± 12% | Ki [7]: 2.6 ± 1.3 nM | Ki [2]: 10.4 ± 2.3 nM | EC50 [3, 8]: 6.2 ± 2 nM | Emax [3]: 93 ± 6% | Ki [4]: 80 ± 13 nM

Source: patent publication US20210002231A1 (Centre National de la Recherche Scientifique, priority 2018, published 2021)
